From PMC6080388 (Journal of Enzyme Inhibition and Medicinal Chemistry, 2017)
Values joined by “and” are separate entries in the source; they are usually repeats but may differ in a detail not shown here. Equal entries are not always repeated. Where two headings read alike, the source gives them in different places.

What was measured:
[1] = molecular target: T1, AChE (EC 3.1.1.7, from Electrophorus electricus) (Electrophorus electricus, UniProt O42275); assay: biochemical; type: biochemical; conditions: for Selectivity for AChE: IC50(BuChE)/IC50(AChE)
T1 construct: purchased Sigma Aldrich (Steinheim, Germany)
Method: (§2) The inhibitory activities of the tested compounds towards AChE and BuChE were performed using Ellman’s method[25]. All reagents including AChE (EC 3.1.1.7, from Electrophorus electricus), BuChE (EC 3.1.1.8, from equin serum), DTNB (Ellman’s reagent), and acetylthiocholine iodide (ATC iodide) were purchased from Sigma Aldrich (Steinheim, Germany). Analysis was executed in following procedure: AChE and BuChE solution was made by dissolving enzymes in phosphate buffer (pH 7.4) to obtain 2 and 4 U/ml, respectively. […] The study was performed in triplicate and recorded in 96-well microplates, using multifunctional microplate reader. The assay medium contained DTNB solution 0.4 mg/ml (76 µl), AChE (10 µl), various concentration of the examined compounds (14 µl) and ATC iodine solution (40 µl) at the concentration of 1 mM. For the reference value, 14 µl of the test compound solutions were replaced by phosphate buffer (pH 7.4). […] Inhibition activity was expressed as a percentage of the activity of the tested compound relative to the reference control.

[2] = molecular target: T2, BuChE (EC 3.1.1.8, from equin serum) (Equus caballus, UniProt P81908); assay: biochemical; type: biochemical; conditions: for IC50: means ± SEM of three independent experiments, equine serum BuChE; for BuChE inhibitory activity, fold higher than donepezil: in comparison to donepezil
T2 construct: BuChE (EC 3.1.1.8, from equin serum); purchased Sigma Aldrich (Steinheim, Germany); host or cells: equine serum
Method: as §2

Aβ1–42 = molecular target: T3, Aβ1–42 (Homo sapiens, UniProt P05067); assay: Aβ1–42 aggregation assay, Thioflavin T fluorescence; type: biochemical; conditions: Aβ1–42 12.58 μM, 24 h
T3 construct: final Aβ1–42 concentration – 12.58 μM
Method: The Aβ1–42 aggregation assay was established using the Thioflavin T fluorescence method[22] ^, [26] ^, [27]. Experiment was performed by incubating the peptides previously dissolved in DMSO at room temperature for 24 h (final Aβ1–42 concentration – 12.58 μM) with or without the tested compounds at the different concentrations (5, 10, 25, 50, and100 μM). After incubation all samples were diluted in PBS – phosphate buffer (pH 7.4) containing Thioflavin T (5 μM). Subsequently, after 5 min incubation with the dye, fluorescence signal was measured (excitation wavelength 446 nm, emission wavelength 490 nm) on a monochromator based multimode microplate reader (Synergy H1, Bio-Tek, Winooski, VT), adapted for 96-well microtiter plates. Next the percent of inhibition on aggregation was calculated by the following expression: 100 – (IFi/IFo × 100). IFi and IFo were the fluorescence intensities obtained for absorbance in the presence and absence of inhibitors, respectively. The background values were deducted in the calculations.

EeAChE = molecular target: T4, EeAChE (Electrophorus electricus, UniProt O42275); type: biochemical; conditions: for Vmax: AChE
T4 construct: purchased Sigma Aldrich (Steinheim, Germany)
Method: The kinetic characterisation was evaluated according to the Ellman’s method[4] ^, [25]. […]. The tested medium contained: DTNB solution (0.4 mg/ml), AChE solution (2 U/ml), solution of the examined compound and different concentrations of the substrate ACT iodide in a total volume of […]. Absorbance were detected at 412 nm at room temperature after 6 min. Received date were calculated and presented on the Lineweaver–Burk plot. Determinated the KM and Vmax values were used to define the type of enzyme inhibition.

EqBuChE = molecular target: T5, EqBuChE (Equus caballus, UniProt P81908); assay: Kinetic characterisation of BuChE inhibition (Lineweaver–Burk); type: biochemical; conditions: for Vmax: BuChE
T5 construct: BuChE (EC 3.1.1.8, from equin serum); purchased Sigma Aldrich (Steinheim, Germany); host or cells: equine serum
Method: Kinetic analysis was performed using Ellman’s test[4] ^, [25]. […]. Total volume of tested medium (140 µl) comprised: DTNB solution (0.4 mg/ml), BuChE solution (4 U/ml), solution of the examined compound and different concentrations of the substrate ATC iodide. Absorbance was detected at 412 nm at room temperature after 8 min. Results were calculated and presented on the Lineweaver–Burk plot. Received KM and Vmax values allowed to define the type of enzyme inhibition.

[3] = system: ATCC CCL-185 cell line (Epithelial cells from human lungs, carcinoma); assay: MTT cytotoxicity assay on ATCC CCL-185 cells; type: cell-based; conditions: 22.22 µM; 48 h
Method: (§1) In the experiment, ATCC CCL-185 cell line was used (Epithelial cells from human lungs, carcinoma). Cells were seeded on 96-wells plate (F12 Thermo Fisher medium, Waltham MA) and incubated for 24 h. Then the cells were treated with various concentrations (0.22, 1.11, 2.22, 22.22, and 222.20 µM) of the tested compound dissolved in methanol and incubated for 48 h. Final methanol concentration in each well was 1 µl per 100 µl of medium. As a control, the same medium as for cells breeding was used with addition of 1 µl methanol and without studied compound. As a positive control pure methanol was used. After the time of incubation, procedure was carried out according to Vybrant MTT Cell Proliferation Assay Kit: cells were labelled with 10 µl of the 12 mM MTT stock solution, incubated at 37 °C for 4 h, all medium but 25 µl was removed from the wells, 50 µl of DMSO was added, incubated for 10 min at 37 °C and the absorbance at 540 nm was measured.

[4] = MTT cytotoxicity assay on ATCC CCL-185 cells; type: cell-based, human; conditions: human, ATCC CCL-185 cells (human lung carcinoma epithelial cells), control as 100%, read-out: cell viability
Method: as §1

[5] = molecular target: T6, hyaluronidase from bovine testes Type I-S (Bos taurus, UniProt Q2YDK3); assay: Hyaluronidase inhibition test (turbidimetric); type: biochemical; conditions: means ± standard deviation; read-out: HYAL IC50 ± SD
T6 sequence (Q2YDK3 36-553): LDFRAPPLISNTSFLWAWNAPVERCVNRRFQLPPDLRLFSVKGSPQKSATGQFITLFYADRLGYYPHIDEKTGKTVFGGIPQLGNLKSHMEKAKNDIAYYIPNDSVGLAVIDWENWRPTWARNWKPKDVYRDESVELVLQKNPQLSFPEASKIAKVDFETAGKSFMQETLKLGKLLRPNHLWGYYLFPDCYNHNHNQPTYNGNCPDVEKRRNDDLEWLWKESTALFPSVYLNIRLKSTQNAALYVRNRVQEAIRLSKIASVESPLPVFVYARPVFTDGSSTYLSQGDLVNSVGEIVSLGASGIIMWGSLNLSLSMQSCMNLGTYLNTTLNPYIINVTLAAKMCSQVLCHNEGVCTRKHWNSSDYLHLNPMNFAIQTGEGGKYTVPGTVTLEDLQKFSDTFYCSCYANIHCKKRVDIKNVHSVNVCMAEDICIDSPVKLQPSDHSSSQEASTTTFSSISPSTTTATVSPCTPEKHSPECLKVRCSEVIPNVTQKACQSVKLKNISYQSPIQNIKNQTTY
Method: The inhibition study of hyaluronidase was carried out by turbidimetric method adapted to the 96-well plates and described previously by Michel et al[32] ^, [33]. […] Mixture was incubated in the dark at 37 °C for 10 min. Then, 40 µl of hyaluronic acid solution (0.03%, Sigma Aldrich, Steinheim, Germany) in monosodium phosphate buffer (pH 5.35) was added to the wells and the plate was incubated in the dark at 37 °C for 45 min. At the end, 300 µl of bovine serum albumin solution (0.1%, Serva) in sodium acetate buffer (pH 3.75) was added to the wells and incubated in the room temperature for 10 min. The changes in turbidity were measured at 600 nm by a microplate reader (BioTek, Winooski, VT). The assay was run out in three experiments in triplicate to calculate IC50 values. Heparin (WZF, Polfa) was used as a positive control.
The inhibition of hyaluronidase by the tested compound was calculated following the equation: % inhibition=100x1-AHA-AAN/AHA-AHYAL where AHA − absorbance of solution without the enzyme (positive control),
AHYAL − absorbance of solution without the tested compound (negative control), AAN − absorbance of solution with the tested compound.

[6] = means ± SEM of three independent experiments, electric eel AChE, read-out: AChE IC50 ± SEM

T5 sequence (P81908 whole entry): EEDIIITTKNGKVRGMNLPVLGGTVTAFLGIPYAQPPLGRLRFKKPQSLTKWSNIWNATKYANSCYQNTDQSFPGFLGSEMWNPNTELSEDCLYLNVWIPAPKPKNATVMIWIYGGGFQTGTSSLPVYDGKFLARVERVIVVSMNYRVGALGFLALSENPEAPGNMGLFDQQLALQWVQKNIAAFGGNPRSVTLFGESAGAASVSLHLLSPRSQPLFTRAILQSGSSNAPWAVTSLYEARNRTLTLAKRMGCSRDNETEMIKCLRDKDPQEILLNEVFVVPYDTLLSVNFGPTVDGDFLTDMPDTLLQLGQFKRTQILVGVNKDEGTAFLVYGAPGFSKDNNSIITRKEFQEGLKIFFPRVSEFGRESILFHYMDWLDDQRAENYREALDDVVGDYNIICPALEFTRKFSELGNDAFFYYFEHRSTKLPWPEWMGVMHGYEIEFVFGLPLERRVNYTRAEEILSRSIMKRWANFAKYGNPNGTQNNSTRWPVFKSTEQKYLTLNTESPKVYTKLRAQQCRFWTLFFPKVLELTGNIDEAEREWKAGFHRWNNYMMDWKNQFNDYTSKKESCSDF
T2 sequence (P81908 whole entry): as above
T3 sequence (P05067 672-713 limits assumed): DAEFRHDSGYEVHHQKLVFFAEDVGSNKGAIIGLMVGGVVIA
T4 sequence (O42275 24-633): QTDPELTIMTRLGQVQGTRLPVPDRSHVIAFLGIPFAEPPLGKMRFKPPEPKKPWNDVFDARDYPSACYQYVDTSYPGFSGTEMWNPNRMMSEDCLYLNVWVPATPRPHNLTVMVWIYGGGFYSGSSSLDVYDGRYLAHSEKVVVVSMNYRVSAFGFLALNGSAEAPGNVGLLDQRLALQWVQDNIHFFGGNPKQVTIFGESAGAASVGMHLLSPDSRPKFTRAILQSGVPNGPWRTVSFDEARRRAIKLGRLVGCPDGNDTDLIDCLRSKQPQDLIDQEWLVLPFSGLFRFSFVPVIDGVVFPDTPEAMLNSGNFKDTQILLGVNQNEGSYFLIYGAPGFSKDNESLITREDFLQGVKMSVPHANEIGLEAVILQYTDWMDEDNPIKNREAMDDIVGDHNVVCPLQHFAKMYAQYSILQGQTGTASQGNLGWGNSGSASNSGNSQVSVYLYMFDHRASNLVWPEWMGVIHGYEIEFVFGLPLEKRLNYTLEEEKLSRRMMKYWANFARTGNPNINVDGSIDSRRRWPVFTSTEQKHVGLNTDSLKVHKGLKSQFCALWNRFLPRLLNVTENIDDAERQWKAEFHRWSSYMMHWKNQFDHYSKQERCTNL
T1 sequence (O42275 24-633): as above

Q: Which “Selectivity for AChE” value [1] does the source give for `Cl.O=C(NCCNc1c2c(nc3ccccc13)CCC2)c1cnc(Cl)c(Cl)c1` [3a, 5,6-Dichloro-N-[2-(2,3-dihydro-1H-cyclopenta[b]quinolin-9-ylamino)-ethyl]-nicotinamide hydrochloride] here?
A: The value was 28.593.

Q: And the IC50 [1, 6]?
A: Its IC50 is 65 ± 7 nM.

Q: And the “Selectivity for BuChE” value ([2]; IC50(AChE)/IC50(BuChE))?
A: The value was 0.035.

Q: And the IC50 [2]?
A: The IC50 was 1860 ± 83 nM.

Q: Which “Aβ aggregation (%)” value (Aβ1–42; 3b 5 µM) does the source give for `Cl.O=C(NCCCNc1c2c(nc3ccccc13)CCC2)c1cnc(Cl)c(Cl)c1` [3b, 5,6-Dichloro-N-[3-(2,3-dihydro-1H-cyclopenta[b]quinolin-9-ylamino)-propyl]-nicotinamide hydrochloride] here?
A: Its value is 74.31%.

Q: What about the “Inhibition of Aβ aggregation (%)” value (Aβ1–42; 3b 5 µM) of the same compound?
A: Its value is 25.7% and 25.69%.

Q: And the “Aβ aggregation (%)” value (Aβ1–42; 3b 10 µM)?
A: Its value is 74.23%.

Q: What about the “Inhibition of Aβ aggregation (%)” value (Aβ1–42; 3b 10 µM) of the same compound?
A: Its value is 25.77%.

Q: And the “Aβ aggregation (%)” value (Aβ1–42; 3b 25 µM)?
A: The value was 51.82%.

Q: What about the “Inhibition of Aβ aggregation (%)” value (Aβ1–42; 3b 25 µM) of the same compound?
A: The value was 48.18%.

Q: What about the “Aβ aggregation (%)” value (Aβ1–42; 3b 50 µM) of the same compound?
A: Its value is 45.70%.

Q: And the “Inhibition of Aβ aggregation (%)” value (Aβ1–42; 3b 50 µM)?
A: Its value is 54.30%.

Q: What about the “Aβ aggregation (%)” value (Aβ1–42; 3b 100 µM) of the same compound?
A: The value was 7.22%.

Q: And the “Inhibition of Aβ aggregation (%)” value (Aβ1–42; 3b 100 µM)?
A: Its value is 92.8% and 92.78%.

Q: What about the IC50 [1] of the same compound?
A: The IC50 was 52 ± 2 nM.

Q: What about the “Selectivity for AChE” value [1] of the same compound?
A: Its value is 3.030.

Q: What about the “AChE inhibitory potency, times higher than donepezil” value ([1]; in comparison to donepezil) of the same compound?
A: Its value is roughly 2 times.

Q: And the Vmax (EeAChE; inhibitor 3b 0.11 µM)?
A: Its Vmax is 312.50 A/min.

Q: And the Vmax (EeAChE; inhibitor 3b 1.11 µM)?
A: Its Vmax is 1666.67 A/min.

Q: What about the “type of EeAChE inhibition” value (EeAChE; Lineweaver–Burk plot) of the same compound?
A: Its value is “mixed type of inhibition”.

Q: What about the “Selectivity for BuChE” value [2] of the same compound?
A: The value was 0.330.

Q: And the “BuChE inhibitory activity, fold higher than donepezil” value [2]?
A: Its value is 75 fold.

Q: And the IC50 [2]?
A: The IC50 was 158 ± 29 nM.

Q: And the Vmax (EqBuChE; inhibitor 3b 0.22 µM)?
A: Its Vmax is 3333.3 A/min.

Q: What about the Vmax (EqBuChE; inhibitor 3b 0.56 µM) of the same compound?
A: Its Vmax is 1666.7 A/min.

Q: What about the “type of EqBuChE inhibition” value (EqBuChE; Lineweaver–Burk plot) of the same compound?
A: The value was “mixed type of inhibition”.

Q: What about the cell viability [3] of the same compound?
A: Its cell viability is “suddenly decreased”.

Q: What about the viability at 48 h, 222.2 µM ([4]; 222.20 µM) of the same compound?
A: The viability at 48 h, 222.2 µM was roughly 7%.

Q: What about the viability at 48 h ([4]; concentrations from 0.22 to 2.22 µM) of the same compound?
A: Its viability at 48 h is roughly 70%.

Q: With `Cl.O=C(NCCCCNc1c2c(nc3ccccc13)CCC2)c1cnc(Cl)c(Cl)c1` [3c, 5,6-Dichloro-N-[4-(2,3-dihydro-1H-cyclopenta[b]quinolin-9-ylamino)-butyl]-nicotinamide hydrochloride] as the compound, how does the “Selectivity for AChE” value [1] read?
A: The value was 1.071.

Q: And the IC50 [1, 6]?
A: Its IC50 is 744 ± 46 nM.

Q: And the “Selectivity for BuChE” value ([2]; IC50(AChE)/IC50(BuChE))?
A: Its value is 0.934.

Q: What about the IC50 [2] of the same compound?
A: The IC50 was 797 ± 86 nM.

Q: Which results are given for `Cl.O=C(NCCCCCNc1c2c(nc3ccccc13)CCC2)c1cnc(Cl)c(Cl)c1` [3d, 5,6-Dichloro-N-[5-(2,3-dihydro-1H-cyclopenta[b]quinolin-9-ylamino)-pentyl]-nicotinamide hydrochloride]?
A: Selectivity for AChE [1]: 1.615; IC50 [1, 6]: 285 ± 38 nM; Selectivity for BuChE ([2]; IC50(AChE)/IC50(BuChE)): 0.619; IC50 [2]: 460 ± 38 nM

Q: For `Cl.O=C(NCCCCCCNc1c2c(nc3ccccc13)CCC2)c1cnc(Cl)c(Cl)c1` [3e, 5,6-Dichloro-N-[6-(2,3-dihydro-1H-cyclopenta[b]quinolin-9-ylamino)-hexyl]-nicotinamide hydrochloride], which “Selectivity for AChE” value [1] is on record?
A: Its value is 2.380.

Q: What about the IC50 [1, 6] of the same compound?
A: The IC50 was 53 ± 5 nM.

Q: And the “Selectivity for BuChE” value ([2]; IC50(AChE)/IC50(BuChE))?
A: The value was 0.420.

Q: What about the IC50 [2] of the same compound?
A: Its IC50 is 127 ± 14 nM.

Q: Which results are given for `Cl.O=C(NCCCCCCCNc1c2c(nc3ccccc13)CCC2)c1cnc(Cl)c(Cl)c1` [3f, 5,6-Dichloro-N-[7-(2,3-dihydro-1H-cyclopenta[b]quinolin-9-ylamino)-heptyl]-nicotinamide hydrochloride]?
A: Selectivity for AChE [1]: 0.569; IC50 [1, 6]: 125 ± 21 nM; Selectivity for BuChE ([2]; IC50(AChE)/IC50(BuChE)): 1.756; BuChE inhibitory activity, fold higher than donepezil [2]: 167 fold; IC50 [2]: 71 ± 12 nM

Q: Which results are given for `Cl.O=C(NCCCCCCCCNc1c2c(nc3ccccc13)CCC2)c1cnc(Cl)c(Cl)c1` [3g, 5,6-Dichloro-N-[8-(2,3-dihydro-1H-cyclopenta[b]quinolin-9-ylamino)-octyl]-nicotinamide hydrochloride]?
A: Selectivity for AChE [1]: 0.711; IC50 [1, 6]: 152 ± 45 nM; Selectivity for BuChE ([2]; IC50(AChE)/IC50(BuChE)): 1.407; IC50 [2]: 108 ± 6 nM

Q: With `Cl.O=C(NCCCCCCCCCNc1c2c(nc3ccccc13)CCC2)c1cnc(Cl)c(Cl)c1` [3h, 5,6-Dichloro-N-[9-(2,3-dihydro-1H-cyclopenta[b]quinolin-9-ylamino)-nonyl]-nicotinamide hydrochloride] as the compound, how does the “Selectivity for AChE” value [1] read?
A: The value was 0.529.

Q: And the IC50 [1, 6]?
A: Its IC50 is 155 ± 45 nM.

Q: What about the “Selectivity for BuChE” value ([2]; IC50(AChE)/IC50(BuChE)) of the same compound?
A: The value was 1.889.

Q: And the IC50 [2]?
A: The IC50 was 82 ± 30 nM.

Q: For Heparin, which IC50 [5] is on record?
A: Its IC50 is 56400 ± 780 nM.
